ChEMBL document CHEMBL1123545 (J Med Chem, 1986)
pKi: −log10 of the molar value. In brackets after ≈: the same amount, converted by molar mass. Blank lines part the entries; values can stand above or below the compound they belong to.

What was measured:
[1] = tested on: L1210; assay: Compound was evaluated for growth inhibition and minimal inhibitory concentration was reported against L1210 cells.; assay type: functional, Mus musculus; details: Mus musculus
[2] = tested on: Mus musculus; assay: (§1) Antitumor activity against L1210 leukemia in mice after subcutaneous administration (Q2Dx5) at a dose 9 mg/kg out of 6 mice tested; assay type: ADME, organism-based; set-up: dose 9 mg/kg, route subcutaneous; details: in vivo, sc
[3] = tested on: L1210; assay: (§2) Compound was evaluated for transport properties against L1210 cells for influx; assay type: functional, cell-based, Mus musculus
[4] = tested on: Mus musculus; assay: Compound was evaluated for antitumor activity against L1210 leukemia in mice after subcutaneous administration (Q2Dx5) at a dose 18 mg/kg; assay type: functional; details: for ILS at 18 mg/kg: L1210, sc
[5] = tested on: Mus musculus; assay: Compound was evaluated for antitumor activity against L1210 leukemia in mice after subcutaneous administration (Q2Dx5) at a dose 12 mg/kg; assay type: functional; details: for ILS at 12 mg/kg: L1210, sc
[6] = tested on: Mus musculus; assay: Antitumor activity against L1210 leukemia in mice after subcutaneous administration (Q2Dx5) at a dose 18/mg/kg out of 9 mice tested; assay type: functional
[7] = tested on: Mus musculus; assay: (§3) Antitumor activity against L1210 leukemia in mice after subcutaneous administration (Q2Dx5) at a dose 24 mg/kg out of 3 mice tested; assay type: ADME, organism-based; set-up: dose 24 mg/kg, route subcutaneous; details: in vivo, sc
[8] = tested on: Mus musculus; assay: Compound was evaluated for antitumor activity against L1210 leukemia in mice after subcutaneous administration (Q2Dx5) at a dose 9 mg/kg; assay type: functional
[9] = tested on: Mus musculus; assay: as §3; assay type: functional
[10] = tested on: L1210; assay: Compound was evaluated for transport properties against L1210 cells for efflux; assay type: functional, Mus musculus
[11] = tested on: Mus musculus; assay: Antitumor activity against L1210 leukemia in mice after subcutaneous administration (Q2Dx5) at a dose 18 mg/kg out of 9 mice tested; assay type: ADME, organism-based; set-up: dose 18 mg/kg, route subcutaneous; details: in vivo, sc
[12] = tested on: Mus musculus; assay: (§4) Antitumor activity against L1210 leukemia in mice after subcutaneous administration (Q2Dx5) at a dose 12 mg/kg out of 9 mice tested; assay type: ADME, organism-based; set-up: dose 12 mg/kg, route subcutaneous; details: in vivo, sc
[13] = tested on: Mus musculus; assay: Compound was evaluated for antitumor activity against L1210 leukemia in mice after subcutaneous administration (Q2Dx5) at a dose 24 mg/kg; assay type: functional
[14] = tested on: Mus musculus; assay: as §4; assay type: functional
[15] = tested on: Mus musculus; assay: as §1; assay type: functional
[16] = tested on: Enterococcus faecium; assay: Compound was evaluated for growth inhibition against Streptococcus faecium ATCC 8043; assay type: functional, organism-based
[17] = tested on: Mus musculus; assay: Compound was evaluated for antitumor activity against L1210 leukemia in mice after subcutaneous administration (Q2Dx5) at a dose 32 mg/kg; assay type: functional; details: L1210, sc
[18] = tested on: Mus musculus; assay: (§5) Antitumor activity against L1210 leukemia in mice after subcutaneous administration (Q2Dx5) at a dose 24 mg/kg out of 9 mice tested; assay type: functional
[19] = tested on: Mus musculus; assay: (§6) Antitumor activity against L1210 leukemia in mice after subcutaneous administration (Q2Dx5) at a dose 12 mg/kg out of 3 mice tested; assay type: functional
[20] = tested on: Mus musculus; assay: as §5; assay type: ADME, organism-based; set-up: dose 24 mg/kg, route subcutaneous; details: in vivo, sc
[21] = tested on: Mus musculus; assay: Antitumor activity against L1210 leukemia in mice after subcutaneous administration (Q2Dx5) at a dose 17 mg/kg out of 9 mice tested; assay type: functional
[22] = tested on: Mus musculus; assay: as §6; assay type: ADME, organism-based; set-up: dose 12 mg/kg, route subcutaneous; details: in vivo, sc
[23] = tested on: Mus musculus; assay: (§7) Antitumor activity against L1210 leukemia in mice after subcutaneous administration (Q2Dx5) at a dose 32 mg/kg out of 6 mice tested; assay type: functional
[24] = tested on: Mus musculus; assay: as §7; assay type: ADME, organism-based; set-up: dose 32 mg/kg, route subcutaneous; details: in vivo, sc
[25] = tested on: Mus musculus; assay: Compound was evaluated for antitumor activity against L1210 leukemia in mice after subcutaneous administration (Q2Dx5) at 32 mg/kg; assay type: functional
[26] = target: T1, Dihydrofolate reductase (Mus musculus, UniProt P00375); assay: Compound was evaluated for binding affinity against Dihydrofolate reductase of L1210 cells; assay type: cell-based
T1 sequence (P00375 whole entry): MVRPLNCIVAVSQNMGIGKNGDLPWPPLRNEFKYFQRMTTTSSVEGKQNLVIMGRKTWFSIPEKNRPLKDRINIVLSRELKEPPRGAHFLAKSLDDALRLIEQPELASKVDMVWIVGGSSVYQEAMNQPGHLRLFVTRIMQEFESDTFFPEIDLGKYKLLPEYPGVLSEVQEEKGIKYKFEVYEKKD

[27] = tested on: L1210; assay: as §2; assay type: functional, Mus musculus

Structure (SMILES): CC[C@H](Cc1cnc2nc(N)nc(N)c2n1)c1ccc(C(=O)N[C@@H](CCC(=O)O)C(=O)O)cc1
MIC50 [1]: 0.43 nM (≈ 0.201 ng/mL)
Toxic deaths [2]: 0
pKi [3]: 5.80
MST [4]: 17.5 days
ILS at 18 mg/kg [4]: 165%
MST [5]: 19.8 days
ILS at 12 mg/kg [5]: 199%
30 days survivors [6]: 1
Toxic deaths [7]: 3
MST [8]: 18.3 days
ILS at 9 mg/kg ([8]; Mus musculus, L1210, sc): 177%
30 days survivors [9]: 0
k [10]: 0.253 min⁻¹
Toxic deaths [11]: 5
Toxic deaths [12]: 3
MST [13]: 10 days
ILS at 24 mg/kg ([13]; L1210, sc): 55%
30 days survivors [14]: 0
30 days survivors [15]: 0

Structure (SMILES): CC[C@H](CC1CNc2nc(N)nc(N)c2N1)c1ccc(C(=O)N[C@@H](CCC(=O)O)C(=O)O)cc1 (stereo in doubt)
IC50 [16]: 3.1 ng/mL (≈ 6.57 nM)

Structure (SMILES): CC[C@@H](Cc1cnc2nc(N)nc(N)c2n1)c1ccc(C(=O)N[C@@H](CCC(=O)O)C(=O)O)cc1
ILS at 32 mg/kg [17]: 181%
MIC50 [1]: 1.52 nM (≈ 0.711 ng/mL)
30 days survivors [18]: 0
ILS at 24 mg/kg ([18]; L1210, sc): 163%
pKi [3]: 5.79
MST [4]: 17.3 days
ILS at 18 mg/kg [4]: 187%
ILS at 12 mg/kg [5]: 138%
30 days survivors [19]: 0
MST [8]: 15.7 days
Toxic deaths [20]: 0
k [10]: 0.249 min⁻¹
Toxic deaths [11]: 0
30 days survivors [21]: 0
Toxic deaths [22]: 0
30 days survivors [23]: 0
Toxic deaths [24]: 1
MST [25]: 18.8 days

Structure (SMILES): CC[C@@H](CC1=Nc2c(N)nc(N)nc2NC1)c1ccc(C(=O)N[C@@H](CCC(=O)O)C(=O)O)cc1 (stereo in doubt; form 1)
IC50 [16]: 1.1 ng/mL (≈ 2.34 nM)

Structure (SMILES): CCC(CC1CNc2nc(N)nc(N)c2N1)c1ccc(C(=O)NC(CCC(=O)O)C(=O)O)cc1 (racemic)
IC50 ([16]; Enterococcus faecium, ATCC 8043, read-out: IC50): 2.6 ng/mL (≈ 5.51 nM)

pKi [26]: 11.37
MIC50 [1]: 0.68 nM (≈ 0.308 ng/mL)
Structure (SMILES): C[C@H](Cc1cnc2nc(N)nc(N)c2n1)c1ccc(C(=O)N[C@@H](CCC(=O)O)C(=O)O)cc1 (stereo in doubt; d-L-15a)
k [27]: 0.258 min⁻¹
pKi [3]: 5.72
